Results taken from patent publication US20040235747A1, “Methods of treating and/or preventing autoimmune diseases” (Ramot At Tel-Aviv University Ltd., priority 2003, published 2004).

Tests used:
[1] = test system: splenocytes; assay: Proliferative T-cell response of splenocytes (thymidine incorporation) from MOG-induced EAE mice; format: cell-based, mouse
Excerpt: FIG. 2 illustrates the thymidine incorporation into splenocytes in a MOG-induced mouse model in the presence (filled circles) or absence (open circles) of NAP.
An additional experiment included proliferative T-cell response performed as described by Offen et al., supra.

[2] = test system: MOG-induced EAE mice; assay: MOG-induced chronic autoimmune encephalomyelitis (EAE), clinical score; format: in vivo, C57/b mice; conditions: NAP intranasal 0.1 microgram/mouse daily; day 11 on, P<0.01, t-test, vs control mixture without NAP (FIG. 1)

## Asn-Ala-Pro-Val-Ser-Ile-Pro-Gln [NAP]
[1]; MS model treated with NAP compared to untreated, P<0.01 (FIG. 2)
  proliferative response of splenocytes (cell proliferation, immune response): much reduced
[1]; splenocytes of NAP-treated animals, MOG up to 25 micrograms, untreated splenocytes showed increased proliferation even at 2 micrograms/well
  effect of added MOG on splenocyte proliferation: no effect
[2]
  clinical outcome (clinical manifestations of EAE, score 0-6): significantly improved the clinical outcome
